Results from patent publication US12516064B2, “Tetrahydropyridopyrimidines and related analogs for inhibiting YAP/TAZ-TEAD” (THE KATHOLIEKE UNIVERSITEIT LEUVEN, priority 2022, dated 2026).

Tests used:
Assay type in all cases: cell-based
[1] = tested on: YAP/TAZ-TEAD transcription; experiment: Reporter gene assay for measuring the inhibition of YAP/TAZ-TEAD transcription; settings: Homo sapiens, HEK-293T; Hek293T cells transiently transfected with TEAD-responsive element luciferase reporter; 24 hours incubation
Method: Hek293T cells are cultured in DMEM supplemented with 10% fetal bovine serum, Sodium pyruvate, Sodium bicarbonate, L-glutamine. The cells are harvested and transiently transfected with TEAD-responsive element luciferase reporter. Transfected cells are plated in 384-wells plate containing pre-diluted compounds. After 24 hours incubation at 37° C./5% CO2, assay plates were cooled down to RT and levelled to an equal volume per well, prior to the addition of 25 uL luciferase substrate SteadyLite (Perkin Elmer)/well. The plate was shaken for 10 min at 600 rpm, centrifuged for 1 min at 500 rpm and measured with an Envision reader (PerkinElmer). The amount of relative light units produced by the TEAD reporter is used to calculated percent of inhibition.
The percent of reporter inhibition was calculated in the presence of a positive control inhibitor (100% inhibition) versus a condition with the presence of the vehicle basal activity of the reporter (0% inhibition). The ability of a test compound to inhibit this activity was determined as: Percentage inhibition=[1−((RLU determined in the presence of vehicle−RLU determined for sample with test compound present) divided by (RLU determined in the presence of vehicle−RLU determined for sample with positive control inhibitor))]*100 The activities of example compounds tested are depicted in Table 8. The activity ranges A, B and C refer to IC50 values in the reporter gene assay as follows: “A”: EC50<1 μM; “B”: 1 μM≤EC50≤3.0 μM and “C”: EC50>3.0 μM, NT=not tested.

[2] = tested on: NCI-H2052; experiment: Mesothelioma cell line proliferation assay (NCI-H2052); settings: Homo sapiens, 144 h; NCI-H2052 cells; 6 days with compound; cell viability by ATPlite
Method: (§1) Mesothelioma cell lines, NCI-H226 and NCI-H2052 (all sourced from the ATCC cell culture collection) are plated in 96-well plates (Corning® 96 Well White Polystyrene Microplate clear flat bottom, white polystyrene (TC-Treated)), at 1500 cells/well in full medium (RPMI 1640 ATCC modification with L-glutamine, HEPES, Phenol Red, Sodium Pyruvate, High glucose, Low sodium bicarbonate and 10% fetal bovine serum). Cells are incubated overnight at 37° C. in an incubator with 5% CO2. Then compounds, dissolved in DMSO, are added in dose-response. Cells are incubated with compound dilutions for another 6 days at 37° C. in an incubator with 5% CO2. Cell viability is quantitated using the ATPlite kit (Perkin-Elmer) and the luminescence is read-out using an Envision instrument (Perkin-Elmer). The amount of relative light units produced using the ATPlite kit is used to calculated percent of inhibition.
(§2) The activities of some example compounds are depicted in Table 9. The activity ranges A, B and C refer to EC50 values in the mesothelioma cell line proliferation assay as described as follows: “A”: EC50<1 μM; “B”: 1 μM≤EC50≤10 μM and “C”: EC50>10 μM; NT: not tested.

[3] = tested on: NCI-H226; experiment: Mesothelioma cell line proliferation assay (NCI-H226); settings: Homo sapiens, 144 h; NCI-H226 cells; 6 days with compound; cell viability by ATPlite
Method: as §1, §2

EC50 [1] [nM] | EC50 [2] [nM] | EC50 [3] [nM] | Compound
< 1000 | 1000 to 10000 | < 1000 | C=CC(=O)N1Cc2nc(Cc3ccccc3)nc(-c3ccn(C)n3)c2C1 [Cpd. No. 20, 1-(2-benzyl-4-(1-methyl-1H-pyrazol-3-yl)-5,7-dihydro-6H-pyrrolo[3,4-d]pyrimidin-6-yl)prop-2-en-1-one]
< 1000 | < 1000 | < 1000 | C=CC(=O)N1CCc2c(nc(Cc3ccccc3)nc2-c2ccn(C)n2)C1 [Cpd. No. 32, 1-(2-benzyl-4-(1-methyl-1H-pyrazol-3-yl)-5,8-dihydropyrido[3,4-d]pyrimidin-7(6H)-yl)prop-2-en-1-one]
< 1000 | 1000 to 10000 | < 1000 | C=CC(=O)N1CCc2c(nc(Cc3ccccc3)nc2-c2ccn(Cc3cccnc3)n2)C1 [Cpd. No. 35, 1-(2-benzyl-4-(1-(pyridin-3-ylmethyl)-1H-pyrazol-3-yl)-5,8-dihydropyrido[3,4-d]pyrimidin-7(6H)-yl)prop-2-en-1-one]
< 1000 | 1000 to 10000 | < 1000 | C=CC(=O)N1CCc2c(nc(-c3ccccc3)nc2-c2ccn(C)n2)C1 [Cpd. No. 39, 1-(4-(1-methyl-1H-pyrazol-3-yl)-2-phenyl-5,8-dihydropyrido[3,4-d]pyrimidin-7(6H)-yl)prop-2-en-1-one]
< 1000 | 1000 to 10000 | < 1000 | C=CC(=O)N1CCc2c(nc(Cc3cccc(F)c3)nc2-c2ccn(C)n2)C1 [Cpd. No. 43, 1-(2-(3-fluorobenzyl)-4-(1-methyl-1H-pyrazol-3-yl)-5,8-dihydropyrido[3,4-d]pyrimidin-7(6H)-yl)prop-2-en-1-one]
< 1000 | 1000 to 10000 | < 1000 | C=CC(=O)N1CCc2c(nc(Cc3cccc(C(F)(F)F)c3)nc2-c2ccn(C)n2)C1 [Cpd. No. 46, 1-(4-(1-methyl-1H-pyrazol-3-yl)-2-(3-(trifluoromethyl)benzyl)-5,8-dihydropyrido[3,4-d]pyrimidin-7(6H)-yl)prop-2-en-1-one]
< 1000 | > 10000 | < 1000 | C=CC(=O)N1CCc2c(nc(Cc3ccc(C(F)(F)F)cc3)nc2-c2ccn(Cc3cccnc3)n2)C1 [Cpd. No. 49, 1-(4-(1-(pyridin-3-ylmethyl)-1H-pyrazol-3-yl)-2-(4-(trifluoromethyl)benzyl)-5,8-dihydropyrido[3,4-d]pyrimidin-7(6H)-yl)prop-2-en-1-one]
< 1000 | > 10000 | < 1000 | C=CC(=O)N1CCc2c(nc(-c3ccc(F)cc3)nc2-c2ccn(C)n2)C1 [Cpd. No. 51, 1-(2-(4-fluorophenyl)-4-(1-methyl-1H-pyrazol-3-yl)-5,8-dihydropyrido[3,4-d]pyrimidin-7(6H)-yl)prop-2-en-1-one]
< 1000 | 1000 to 10000 | < 1000 | C=CC(=O)N1CCc2c(nc(-c3cccc(F)c3)nc2-c2ccn(C)n2)C1 [Cpd. No. 52, 1-(2-(3-fluorophenyl)-4-(1-methyl-1H-pyrazol-3-yl)-5,8-dihydropyrido[3,4-d]pyrimidin-7(6H)-yl)prop-2-en-1-one]
< 1000 | 1000 to 10000 | < 1000 | C=CC(=O)N1CCc2c(nc(-c3ccc(F)c(F)c3)nc2-c2ccn(C)n2)C1 [Cpd. No. 53, 1-(2-(3,4-difluorophenyl)-4-(1-methyl-1H-pyrazol-3-yl)-5,8-dihydropyrido[3,4-d]pyrimidin-7(6H)-yl)prop-2-en-1-one]
< 1000 | 1000 to 10000 | < 1000 | C=CC(=O)N1CCc2c(nc(-c3ccc(C(F)(F)F)cc3)nc2-c2ccn(C)n2)C1 [Cpd. No. 54, 1-(4-(1-methyl-1H-pyrazol-3-yl)-2-(4-(trifluoromethyl)phenyl)-5,8-dihydropyrido[3,4-d]pyrimidin-7(6H)-yl)prop-2-en-1-one]
< 1000 | 1000 to 10000 | < 1000 | C=CC(=O)N1CCc2c(nc(-c3cccc(C(F)(F)F)c3)nc2-c2ccn(C)n2)C1 [Cpd. No. 55, 1-(4-(1-methyl-1H-pyrazol-3-yl)-2-(3-(trifluoromethyl)phenyl)-5,8-dihydropyrido[3,4-d]pyrimidin-7(6H)-yl)prop-2-en-1-one]
< 1000 | 1000 to 10000 | 1000 to 10000 | C=CC(=O)N1CCc2c(nc(-c3ccccc3)nc2-c2ccn(C(F)F)n2)C1 [Cpd. No. 65, 1-(4-(1-(difluoromethyl)-1H-pyrazol-3-yl)-2-phenyl-5,8-dihydropyrido[3,4-d]pyrimidin-7(6H)-yl)prop-2-en-1-one]
< 1000 | 1000 to 10000 | < 1000 | C=CC(=O)N1CCc2c(nc(-c3ccc(C(F)(F)F)cc3)nc2-c2ccn(C(F)F)n2)C1 [Cpd. No. 69, 1-(4-(1-(difluoromethyl)-1H-pyrazol-3-yl)-2-(4-(trifluoromethyl)phenyl)-5,8-dihydropyrido[3,4-d]pyrimidin-7(6H)-yl)prop-2-en-1-one]
< 1000 | > 10000 | < 1000 | C=C(F)C(=O)N1CCc2c(nc(-c3ccc(C(F)(F)F)cc3)nc2-c2ccn(C)n2)C1 [Cpd. No. 71, 2-fluoro-1-(4-(1-methyl-1H-pyrazol-3-yl)-2-(4-(trifluoromethyl)phenyl)-5,8-dihydropyrido[3,4-d]pyrimidin-7(6H)-yl)prop-2-en-1-one]
< 1000 | 1000 to 10000 | < 1000 | C=CC(=O)N1CCc2c(nc(-c3ccc(C(F)(F)F)cc3)nc2-c2ccn(CCOC)n2)C1 [Cpd. No. 73, 1-(4-(1-(2-methoxyethyl)-1H-pyrazol-3-yl)-2-(4-(trifluoromethyl)phenyl)-5,8-dihydropyrido[3,4-d]pyrimidin-7(6H)-yl)prop-2-en-1-one]
< 1000 | 1000 to 10000 | < 1000 | C/C=C/C(=O)N1CCc2c(nc(-c3ccc(C(F)(F)F)cc3)nc2-c2ccn(C)n2)C1 [Cpd. No. 74, (E)-1-(4-(1-methyl-1H-pyrazol-3-yl)-2-(4-(trifluoromethyl)phenyl)-5,8-dihydropyrido[3,4-d]pyrimidin-7(6H)-yl)but-2-en-1-one]
< 1000 |  |  | CCC(=O)N1CCc2c(nc(-c3ccc(C(F)(F)F)cc3)nc2-c2ccn(C)n2)C1 [Cpd. No. 85, 1-(4-(1-methyl-1H-pyrazol-3-yl)-2-(4-(trifluoromethyl)phenyl)-5,8-dihydropyrido[3,4-d]pyrimidin-7(6H)-yl)propan-1-one]
1000 to 3000 |  |  | CCC(=O)N1CCc2c(nc(-c3ccc(C(F)(F)F)cc3)nc2-c2cn(C)nn2)C1 [Cpd. No. 91, 1-(4-(1-methyl-1H-1,2,3-triazol-4-yl)-2-(4-(trifluoromethyl)phenyl)-5,8-dihydropyrido[3,4-d]pyrimidin-7(6H)-yl)propan-1-one]
1000 to 3000 |  |  | CCC(=O)N1CCc2c(nc(-c3ccc(C(F)(F)F)cc3)nc2-c2cnn(C)n2)C1 [Cpd. No. 93, 1-(4-(2-methyl-2H-1,2,3-triazol-4-yl)-2-(4-(trifluoromethyl)phenyl)-5,8-dihydropyrido[3,4-d]pyrimidin-7(6H)-yl)propan-1-one]
< 1000 |  |  | C/C=C/C(=O)N1CCc2c(nc(C3CCC(F)(F)CC3)nc2-c2ccn(C)n2)C1 [Cpd. No. 95, (E)-1-(2-(4,4-difluorocyclohexyl)-4-(1-methyl-1H-pyrazol-3-yl)-5,8-dihydropyrido[3,4-d]pyrimidin-7(6H)-yl)but-2-en-1-one]
